Source: PubChem BioAssay (NCI)
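How tested: cells in 96-well plates exposed to compound for 48 hours at five concentrations. TGI marks complete inhibition of growth.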

Experiments:
Experiment in all cases: growth of human tumour cells (NCI), 48 h
NCI-H226 lung = test system: NCI-H226 lung
A549 NSCLC = test system: A549 NSCLC
K-562 leukemia = test system: K-562 leukemia
NCI-H23 lung = test system: NCI-H23 lung
IGROV1 ovarian = test system: IGROV1 ovarian
OVCAR-4 ovarian = test system: OVCAR-4 ovarian
DU-145 prostate = test system: DU-145 prostate
SK-MEL-5 melanoma = test system: SK-MEL-5 melanoma
RPMI-8226 leukemia = test system: RPMI-8226 leukemia
MDA-MB-231 breast = test system: MDA-MB-231 breast
OVCAR-5 ovarian = test system: OVCAR-5 ovarian
SK-MEL-2 melanoma = test system: SK-MEL-2 melanoma
CCRF-CEM leukemia = test system: CCRF-CEM leukemia
786-0 renal = test system: 786-0 renal
MDA-N = test system: MDA-N
OVCAR-3 ovarian = test system: OVCAR-3 ovarian
SK-OV-3 ovarian = test system: SK-OV-3 ovarian
HCT-116 colon = test system: HCT-116 colon
SF-539 CNS = test system: SF-539 CNS
SNB-75 CNS = test system: SNB-75 CNS

| SMILES | TGI (NCI-H226 lung) [µM] | TGI (A549 NSCLC) [µM] | TGI (K-562 leukemia) [µM] | TGI (NCI-H23 lung) [µM] | TGI (IGROV1 ovarian) [µM] | TGI (OVCAR-4 ovarian) [µM] | TGI (DU-145 prostate) [µM] | TGI (SK-MEL-5 melanoma) [µM] | TGI (RPMI-8226 leukemia) [µM] | TGI (MDA-MB-231 breast) [µM] | TGI (OVCAR-5 ovarian) [µM] | TGI (SK-MEL-2 melanoma) [µM] | TGI (CCRF-CEM leukemia) [µM] | TGI (786-0 renal) [µM] | TGI (MDA-N) [µM] | TGI (OVCAR-3 ovarian) [µM] | TGI (SK-OV-3 ovarian) [µM] | TGI (HCT-116 colon) [µM] | TGI (SF-539 CNS) [µM] | TGI (SNB-75 CNS) [µM] |
| --- | --- | --- | --- | --- | --- | --- | --- | --- | --- | --- | --- | --- | --- | --- | --- | --- | --- | --- | --- | --- |
| CCOC(=O)CC[C@H](NC(=O)N[C@H](C)c1ccccc1)C(=O)OCC | > 100 | > 100 | > 100 | > 100 | > 100 | > 100 | > 100 | > 100 | > 100 | > 100 | > 100 | 52.8 | 54.2 | > 100 | 38.2 | 41.5 | > 100 | > 100 | 45.5 | – |
| CCOC(=O)Cc1nnc2n(-c3ccccc3)c(=O)c3ccccc3n12 | > 100 | > 100 | > 100 | > 100 | > 100 | > 100 | > 100 | > 100 | – | > 100 | > 100 | > 100 | > 100 | > 100 | > 100 | > 100 | > 100 | > 100 | > 100 | > 100 |
| COc1ccc2[nH]c3c(c2c1)CC(=O)N1CCCC(CC3O)C1 (centres undefined) | > 100 | > 100 | > 100 | > 100 | > 100 | > 100 | > 100 | > 100 | > 100 | > 100 | – | > 100 | – | > 100 | > 100 | – | > 100 | > 100 | > 100 | > 100 |
| Cc1ccc(Cc2nn(C)c(=O)n2N)cc1 | > 100 | > 100 | > 100 | > 100 | > 100 | > 100 | > 100 | > 100 | > 100 | > 100 | > 100 | > 100 | – | > 100 | > 100 | > 100 | > 100 | > 100 | > 100 | – |
| CC(C)(Oc1ccc(Cl)cc1)C(=O)N(C(=O)N1CCCCC1)c1ccccc1 | 51 | – | > 100 | 33.1 | 22.3 | – | 27.8 | 24.2 | > 100 | 25.5 | 36.7 | 32 | > 100 | 27.6 | > 100 | 75.1 | 40.4 | 21.2 | 25.3 | – |
| CC(=O)NCCCCN(CCCNC(C)=O)C(=O)CNS(=O)(=O)c1cccc2c(N(C)C)cccc12 | > 100 | > 100 | > 100 | > 100 | > 100 | > 100 | > 100 | > 100 | > 100 | > 100 | > 100 | > 100 | > 100 | > 100 | > 100 | > 100 | > 100 | > 100 | > 100 | – |
| CN(C)Cc1cc(C(=O)/C=C/c2ccc(Cl)c(Cl)c2)cc(CN(C)C)c1O | 13.5 | 8.47 | 4.74 | 19.9 | 12.4 | 15.4 | 15.9 | 3.37 | > 100 | 14.3 | 20.9 | – | 11.7 | 3.09 | 10.9 | 5.46 | – | 12.1 | 8.93 | – |
| CC(O)CN1c2ccccc2Sc2ccccc21 (centres undefined) | > 100 | > 100 | > 100 | > 100 | > 100 | > 100 | > 100 | > 100 | – | > 100 | > 100 | – | > 100 | > 100 | > 100 | > 100 | > 100 | > 100 | > 100 | – |
| CC(C)CCNC(=O)C(CC(C)C)NC(=O)[C@H]1O[C@@H]1C(=O)O (some centres undefined) | > 100 | > 100 | > 100 | > 100 | > 100 | > 100 | > 100 | > 100 | – | > 100 | > 100 | – | > 100 | > 100 | > 100 | > 100 | > 100 | > 100 | > 100 | > 100 |
| CC1C2CC(CC2(C)O)C1(C)C (centres undefined) | > 100 | > 100 | > 100 | > 100 | > 100 | > 100 | > 100 | > 100 | – | > 100 | > 100 | – | > 100 | > 100 | > 100 | > 100 | > 100 | > 100 | > 100 | > 100 |
| O=C(Cc1ccccc1)NN1C(=O)/C(=C\c2cccc([N+](=O)[O-])c2)SC1=Nc1ccccc1 | > 100 | > 100 | > 100 | > 100 | > 100 | > 100 | > 100 | > 100 | > 100 | > 100 | > 100 | > 100 | – | > 100 | > 100 | > 100 | > 100 | > 100 | > 100 | > 100 |
| CSc1nn(C)cc2ncnc1-2 | > 100 | > 100 | > 100 | > 100 | > 100 | – | > 100 | > 100 | > 100 | > 100 | > 100 | > 100 | > 100 | > 100 | > 100 | > 100 | – | > 100 | > 100 | 64 |
| Cc1c2c(nc3ccccc13)C(=O)c1cccnc1C2=O | > 100 | 21.7 | > 100 | 73.1 | > 100 | > 100 | > 100 | 1.48 | > 100 | > 100 | > 100 | – | > 100 | > 100 | 3.16 | 43.9 | > 100 | 18.8 | 54.2 | 91.7 |
| C=C1C[C@@H]2O[C@H]3[C@H]4[C@@H](C[C@@H](C)[C@@H](OC(C)=O)[C@H]42)[C@@H](C)CO[C@@]3(C)[C@H](OC(=O)CCCCCCC)C[C@H]1O | 26.1 | 34 | > 100 | 40.2 | 36 | 28.1 | 28.3 | 28.8 | 42.6 | 27 | 32 | 36.7 | 38 | 28.9 | 30.3 | 37.2 | – | 30.1 | 40.5 | 32.6 |
| O=c1cc(NNCc2ccccc2)[nH]c(=O)[nH]1 | > 100 | > 100 | > 100 | > 100 | > 100 | > 100 | > 100 | > 100 | > 100 | > 100 | > 100 | – | > 100 | > 100 | > 100 | > 100 | – | – | > 100 | – |
| CC(C)(C)C1CCC2c3c([nH]c4ccccc34)C3C(=O)N(c4ccccc4[N+](=O)[O-])C(=O)C3C2C1 (centres undefined) | 57.2 | 33.9 | 27.8 | 22.1 | 76 | – | 22.4 | 26.7 | > 100 | 27.2 | 50.5 | 35.6 | 53.1 | 28.9 | 43.9 | 28.6 | > 100 | 22.7 | 61.3 | – |
| COc1ccc2c(=O)cc(-c3ccc(OC)c(OC)c3OC)oc2c1 | > 100 | > 31.6 | > 100 | > 100 | > 100 | > 100 | > 100 | > 100 | 53.9 | > 100 | > 100 | – | > 31.6 | > 100 | > 100 | > 87.6 | > 100 | > 100 | > 100 | > 92.6 |
| CC[C@]12C=CCN3CCC4(c5cc([C@@]6(C(=O)OC)CC7CN(CCc8c6[nH]c6ccccc86)C[C@@H]6CCCC[C@H]76)c(OC)cc5N(C)C4[C@](O)(C(=O)OC)C1OC(C)=O)[C@@H]32 (some centres undefined) | 15.3 | 14.6 | – | < 0.01 | – | 19.3 | 14.8 | < 0.01 | 32.1 | < 0.01 | 8.83 | 7.85 | > 37.1 | 12.5 | < 0.01 | – | – | 1.73 | < 0.01 | – |
| COc1ccc2c(c1)-c1c(c3cc(OC)ccc3n1CCCN(C)C)CC2 | 6.82 | 50.6 | 13.2 | 37 | > 36.2 | 30.8 | 33.4 | 8.29 | 26 | 30.5 | 28.4 | 31 | 14.1 | > 100 | 16 | 29.6 | 32.7 | 51.1 | – | 13.9 |
| N#Cc1ccc(-c2nc3c(N)nc(-c4ccccc4)nc3o2)cc1 | > 100 | > 100 | > 100 | > 100 | > 100 | > 100 | > 100 | > 100 | > 100 | 46.2 | > 100 | > 100 | – | > 100 | > 100 | > 100 | – | > 100 | 22.3 | > 100 |
